According to paper PMC8292346, “Dysfunction of the key ferroptosis-surveilling systems hypersensitizes mice to tubular necrosis during acute kidney injury” (Nature Communications, 2021):
Values joined by “and” are separate entries in the source; they are usually repeats but may differ in a detail not shown here. Identical values can stand only once. Like-named read-outs stand apart in the source and are kept apart here.

Key:
B6 LysM-GFP mice = test: Intravital two-photon imaging of neutrophils in transplanted hearts; format: in vivo, mouse; settings: heart transplantation, recipient mice 2.0 mg/kg body weight
Description: Hearts harvested from wild-type C57BL/6 mice were transplanted into the right neck of syngeneic LysM-GFP hosts, as previously described. […] Intravital two-photon imaging was performed using a custom-built microscope running ImageWarp version 2.1 acquisition software (A&B Software). For time-lapse imaging of cell trafficking, we averaged 15 video-rate frames (0.5 s per slice) during the acquisition. Each plane represents an image of 220 × 240 μm in the x and y dimensions and twenty-one sequential planes were acquired in the z dimension (2.5-μm each). Each individual neutrophil was tracked from its first appearance in the imaging window and followed up to the time point at which it dislocated more than 20 μm from its starting position. Fifty microlitres PBS containing 15 μl 655-nm nontargeted Q-dots (Thermo Fisher Scientific) were injected prior to imaging to visualize coronary vessels and assess whether neutrophils were intravascular or extravascular. The number of extravascular neutrophils was divided by the sum of intravascular and extravascular neutrophils to calculate extravasation. Imaris (Bitplane) was used for multidimensional rendering and manual cell tracking.

C57Bl/6 N mice = test: Bilateral kidney ischemia-reperfusion injury, moderate model (30 min ischemia); format: in vivo, mouse
Text: Otherwise, the two models are identical.

[1] = both, microsomes, 2 µM, pH 7.4
A2A(h) = A2A(h) (Homo sapiens, UniProt P29274); test: Off-target radioligand binding screen; settings: read-out: A2A(h) (#): inhibition of radioligand binding
α1A(h) = α1A(h) (Homo sapiens, UniProt P35348); test: Off-target radioligand binding screen; settings: read-out: α1A(h) ($): inhibition of radioligand binding
CB2(h) = CB2(h) (Homo sapiens, UniProt P34972); test: Off-target radioligand binding screen; settings: read-out: CB2(h) (#): inhibition of radioligand binding
D2S(h) = D2S(h) (Homo sapiens, UniProt P14416); test: Off-target radioligand binding screen; settings: read-out: D2S(h) (#): inhibition of radioligand binding
ETA(h) = ETA(h) (Homo sapiens, UniProt P25101); test: Off-target radioligand binding screen; settings: read-out: ETA(h) (#): inhibition of radioligand binding
MAO-A = MAO-A (Rattus norvegicus, UniProt P21396); test: Off-target radioligand binding screen; settings: read-out: MAO-A ($): inhibition of radioligand binding
δ (DOP) (h) = δ (DOP) (h) (Homo sapiens, UniProt P41143); test: Off-target radioligand binding screen; settings: read-out: δ (DOP) (h) (#): inhibition of radioligand binding
μ (MOP) (h) = μ (MOP) (h) (Homo sapiens, UniProt P35372); test: Off-target radioligand binding screen; settings: read-out: μ (MOP) (h) (#): inhibition of radioligand binding
5-HT1B (h) = 5-HT1B (h) (Homo sapiens, UniProt P28222); test: Off-target radioligand binding screen; settings: read-out: 5-HT1B (h) ($): inhibition of radioligand binding
5-HT2B(h) = 5-HT2B(h) (Homo sapiens, UniProt P41595); test: Off-target radioligand binding screen; settings: read-out: 5-HT2B(h) (#): inhibition of radioligand binding
5-HT3(h) = 5-HT3(h) (Homo sapiens, UniProt P46098); test: Off-target radioligand binding screen; settings: read-out: 5-HT3(h) ($): inhibition of radioligand binding
AR(h) = test: Off-target radioligand binding screen; settings: Nec-1f 10 µM
V1a(h) = V1a(h) (Homo sapiens, UniProt P37288); test: Off-target radioligand binding screen; settings: read-out: V1a(h) (#): inhibition of radioligand binding
[2] = target: Potassium Channel hERG (human) (Homo sapiens, UniProt Q12809); test: Off-target radioligand binding screen; settings: Nec-1f 10 µM
[3] = target: norepinephrine transporter(h) (Homo sapiens, UniProt P23975); test: Off-target radioligand binding screen; settings: read-out: norepinephrine transporter(h) ($): inhibition of radioligand binding
dopamine transporter(h) = dopamine transporter(h) (Homo sapiens, UniProt Q01959); test: Off-target radioligand binding screen; settings: read-out: dopamine transporter(h) ($): inhibition of radioligand binding
5-HT transporter (h) = 5-HT transporter (h) (Homo sapiens, UniProt P31645); test: Off-target radioligand binding screen; settings: read-out: 5-HT transporter (h) ($): inhibition of radioligand binding
[4] = target: indoleamine 2,3-dioxygenase (IDO) (Homo sapiens, UniProt P14902); test: IDO assay (formation of N-formyl-kynurenine from L-tryptophan); settings: read-out: IDO (h): inhibition
[5] = Nec-1f - sham, individual animals
[6] = Nec-1f, 48 h after onset of reperfusion, individual animals
[7] = Nec-1f, 72 h after onset of reperfusion, individual animals
[8] = kidney IRI, 1.65 mg/kg i.p. 15 min before
[9] = mice, bilateral kidney IRI, Nec-1f 1.65 mg/kg i.p. 15 min before, individual animals
[10] = mice, kidney IRI, Nec-1f, individual animals

Chain of A2A(h) (P29274 whole entry): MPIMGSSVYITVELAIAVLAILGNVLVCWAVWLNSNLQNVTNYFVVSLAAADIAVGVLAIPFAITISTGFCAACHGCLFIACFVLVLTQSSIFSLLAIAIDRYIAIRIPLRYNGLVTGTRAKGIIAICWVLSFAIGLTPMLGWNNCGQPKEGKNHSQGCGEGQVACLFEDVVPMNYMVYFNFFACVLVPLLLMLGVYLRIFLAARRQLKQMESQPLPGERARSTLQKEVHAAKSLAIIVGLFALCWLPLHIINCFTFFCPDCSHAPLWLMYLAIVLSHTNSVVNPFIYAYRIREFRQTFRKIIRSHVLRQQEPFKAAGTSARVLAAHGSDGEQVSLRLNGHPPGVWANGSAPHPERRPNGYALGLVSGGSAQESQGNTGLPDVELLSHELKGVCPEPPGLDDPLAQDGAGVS
Chain of norepinephrine transporter(h) (P23975 whole entry): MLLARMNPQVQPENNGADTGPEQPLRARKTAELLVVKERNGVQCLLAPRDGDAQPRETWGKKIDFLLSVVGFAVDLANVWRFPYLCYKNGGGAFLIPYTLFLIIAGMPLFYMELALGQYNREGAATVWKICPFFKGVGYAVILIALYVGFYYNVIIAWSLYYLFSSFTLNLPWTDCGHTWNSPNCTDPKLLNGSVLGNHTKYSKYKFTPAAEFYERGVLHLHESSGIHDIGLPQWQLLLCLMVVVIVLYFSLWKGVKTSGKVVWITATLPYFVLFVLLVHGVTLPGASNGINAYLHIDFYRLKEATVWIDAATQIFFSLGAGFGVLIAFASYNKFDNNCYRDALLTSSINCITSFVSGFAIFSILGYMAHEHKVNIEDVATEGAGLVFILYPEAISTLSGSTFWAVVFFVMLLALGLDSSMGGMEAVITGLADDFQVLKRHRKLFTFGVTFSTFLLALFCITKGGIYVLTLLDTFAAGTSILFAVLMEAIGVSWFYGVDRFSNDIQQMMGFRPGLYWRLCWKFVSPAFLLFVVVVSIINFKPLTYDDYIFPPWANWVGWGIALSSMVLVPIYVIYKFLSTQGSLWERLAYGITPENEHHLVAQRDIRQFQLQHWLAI
Chain of 5-HT transporter (h) (P31645 whole entry): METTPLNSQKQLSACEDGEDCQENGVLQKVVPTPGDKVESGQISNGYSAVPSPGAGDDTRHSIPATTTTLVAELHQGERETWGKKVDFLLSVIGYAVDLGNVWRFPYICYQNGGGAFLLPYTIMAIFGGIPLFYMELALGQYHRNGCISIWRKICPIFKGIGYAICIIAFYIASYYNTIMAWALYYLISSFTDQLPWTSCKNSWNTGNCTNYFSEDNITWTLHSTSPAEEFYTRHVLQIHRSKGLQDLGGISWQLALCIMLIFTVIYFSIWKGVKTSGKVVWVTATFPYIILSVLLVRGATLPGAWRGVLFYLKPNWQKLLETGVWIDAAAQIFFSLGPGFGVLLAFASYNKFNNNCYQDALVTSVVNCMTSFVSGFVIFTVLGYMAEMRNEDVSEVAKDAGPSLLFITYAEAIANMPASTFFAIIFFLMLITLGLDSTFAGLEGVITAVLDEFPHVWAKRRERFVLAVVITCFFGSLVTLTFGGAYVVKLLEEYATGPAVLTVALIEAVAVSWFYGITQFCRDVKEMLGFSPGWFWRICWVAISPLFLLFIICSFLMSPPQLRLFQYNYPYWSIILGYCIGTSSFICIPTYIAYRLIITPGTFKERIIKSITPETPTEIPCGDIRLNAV
Chain of MAO-A (P21396 whole entry): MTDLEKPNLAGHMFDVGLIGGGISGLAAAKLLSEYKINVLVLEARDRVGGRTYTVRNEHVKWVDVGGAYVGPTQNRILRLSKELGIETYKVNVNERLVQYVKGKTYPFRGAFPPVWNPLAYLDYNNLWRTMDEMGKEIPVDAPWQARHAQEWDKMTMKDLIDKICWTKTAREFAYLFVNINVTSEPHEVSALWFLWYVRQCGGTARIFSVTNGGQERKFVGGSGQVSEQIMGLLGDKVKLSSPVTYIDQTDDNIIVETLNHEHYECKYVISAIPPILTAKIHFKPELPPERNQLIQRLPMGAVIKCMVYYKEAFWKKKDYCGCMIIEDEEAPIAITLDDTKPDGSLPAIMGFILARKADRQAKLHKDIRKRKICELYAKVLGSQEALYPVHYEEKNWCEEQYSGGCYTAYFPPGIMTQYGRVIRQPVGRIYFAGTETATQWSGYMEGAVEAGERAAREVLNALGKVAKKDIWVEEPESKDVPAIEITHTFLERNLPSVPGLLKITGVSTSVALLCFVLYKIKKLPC
Chain of ETA(h) (P25101 21-427): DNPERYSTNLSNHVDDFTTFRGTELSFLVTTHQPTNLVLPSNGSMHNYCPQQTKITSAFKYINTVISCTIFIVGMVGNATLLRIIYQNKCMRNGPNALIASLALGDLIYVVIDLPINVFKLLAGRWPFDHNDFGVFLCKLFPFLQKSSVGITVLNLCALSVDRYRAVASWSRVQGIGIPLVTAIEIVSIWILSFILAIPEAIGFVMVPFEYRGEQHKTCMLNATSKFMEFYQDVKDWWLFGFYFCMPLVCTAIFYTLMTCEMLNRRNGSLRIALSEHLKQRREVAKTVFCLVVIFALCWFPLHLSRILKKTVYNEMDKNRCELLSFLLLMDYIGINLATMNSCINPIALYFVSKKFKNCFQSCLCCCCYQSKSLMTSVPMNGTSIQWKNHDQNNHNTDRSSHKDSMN
Chain of D2S(h) (P14416 1-414 isoform P14416-2): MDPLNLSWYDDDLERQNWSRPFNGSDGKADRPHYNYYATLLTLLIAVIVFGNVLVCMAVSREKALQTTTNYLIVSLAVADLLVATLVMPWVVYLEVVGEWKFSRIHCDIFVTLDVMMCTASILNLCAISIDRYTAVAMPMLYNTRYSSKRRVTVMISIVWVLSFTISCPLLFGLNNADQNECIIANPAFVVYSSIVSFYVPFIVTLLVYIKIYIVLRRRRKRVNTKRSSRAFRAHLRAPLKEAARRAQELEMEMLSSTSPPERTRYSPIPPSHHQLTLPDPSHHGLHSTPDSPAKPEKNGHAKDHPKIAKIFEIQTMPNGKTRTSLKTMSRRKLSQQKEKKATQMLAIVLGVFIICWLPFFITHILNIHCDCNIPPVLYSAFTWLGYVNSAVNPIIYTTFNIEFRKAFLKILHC
Chain of 5-HT1B (h) (P28222 whole entry): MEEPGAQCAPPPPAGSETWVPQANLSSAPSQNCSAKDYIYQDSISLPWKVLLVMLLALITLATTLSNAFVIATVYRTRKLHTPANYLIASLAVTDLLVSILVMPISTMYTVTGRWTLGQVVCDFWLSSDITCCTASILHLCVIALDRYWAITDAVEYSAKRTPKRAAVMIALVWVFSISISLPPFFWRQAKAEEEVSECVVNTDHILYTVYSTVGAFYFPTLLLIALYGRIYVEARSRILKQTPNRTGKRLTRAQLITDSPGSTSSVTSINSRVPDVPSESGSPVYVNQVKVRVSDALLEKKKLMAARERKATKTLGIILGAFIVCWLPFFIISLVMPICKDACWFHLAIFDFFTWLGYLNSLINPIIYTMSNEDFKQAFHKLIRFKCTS
Chain of α1A(h) (P35348 whole entry): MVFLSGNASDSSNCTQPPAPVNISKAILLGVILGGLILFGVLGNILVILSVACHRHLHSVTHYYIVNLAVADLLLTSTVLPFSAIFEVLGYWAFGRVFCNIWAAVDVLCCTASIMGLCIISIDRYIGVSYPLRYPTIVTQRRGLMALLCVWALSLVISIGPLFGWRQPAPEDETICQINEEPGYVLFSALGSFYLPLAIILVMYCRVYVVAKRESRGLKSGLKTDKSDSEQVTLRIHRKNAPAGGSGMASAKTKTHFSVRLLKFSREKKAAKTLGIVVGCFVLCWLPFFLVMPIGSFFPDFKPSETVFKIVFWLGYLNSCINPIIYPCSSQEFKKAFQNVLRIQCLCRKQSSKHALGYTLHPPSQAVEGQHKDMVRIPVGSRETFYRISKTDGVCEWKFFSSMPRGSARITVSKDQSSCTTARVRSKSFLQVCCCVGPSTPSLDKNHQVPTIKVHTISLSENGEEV
Chain of Potassium Channel hERG (human) (Q12809 whole entry): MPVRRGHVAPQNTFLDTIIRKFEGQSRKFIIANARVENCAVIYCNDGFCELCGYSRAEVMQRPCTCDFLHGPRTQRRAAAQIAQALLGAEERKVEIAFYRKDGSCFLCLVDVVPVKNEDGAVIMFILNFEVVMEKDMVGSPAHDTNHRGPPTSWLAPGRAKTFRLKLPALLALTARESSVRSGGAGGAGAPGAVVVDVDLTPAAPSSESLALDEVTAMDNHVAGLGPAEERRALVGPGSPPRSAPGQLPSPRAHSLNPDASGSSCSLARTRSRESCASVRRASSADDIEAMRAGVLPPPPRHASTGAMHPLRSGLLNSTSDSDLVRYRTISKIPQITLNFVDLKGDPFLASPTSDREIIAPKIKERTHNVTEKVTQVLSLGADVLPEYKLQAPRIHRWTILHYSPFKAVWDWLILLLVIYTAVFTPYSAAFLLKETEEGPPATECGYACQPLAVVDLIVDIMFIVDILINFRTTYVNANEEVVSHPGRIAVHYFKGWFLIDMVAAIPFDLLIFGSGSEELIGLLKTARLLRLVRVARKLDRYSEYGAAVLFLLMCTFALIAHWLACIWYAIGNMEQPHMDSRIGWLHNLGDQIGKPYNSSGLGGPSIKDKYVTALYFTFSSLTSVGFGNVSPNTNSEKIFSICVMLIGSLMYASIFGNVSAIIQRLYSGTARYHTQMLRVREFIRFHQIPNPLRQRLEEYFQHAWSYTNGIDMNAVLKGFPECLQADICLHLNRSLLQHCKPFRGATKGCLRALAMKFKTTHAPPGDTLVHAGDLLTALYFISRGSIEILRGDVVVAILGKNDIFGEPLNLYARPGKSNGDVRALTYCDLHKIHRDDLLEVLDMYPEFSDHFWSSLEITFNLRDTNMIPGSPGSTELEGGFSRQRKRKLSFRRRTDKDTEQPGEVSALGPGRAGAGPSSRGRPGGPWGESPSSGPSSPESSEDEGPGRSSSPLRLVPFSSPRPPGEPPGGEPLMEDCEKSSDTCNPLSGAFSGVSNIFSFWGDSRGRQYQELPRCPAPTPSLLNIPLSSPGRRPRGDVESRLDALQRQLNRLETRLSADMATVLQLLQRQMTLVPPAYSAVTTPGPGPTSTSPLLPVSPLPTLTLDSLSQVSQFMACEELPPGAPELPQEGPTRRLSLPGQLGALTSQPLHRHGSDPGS

CN1C(=O)C(Cc2c[nH]c3c(Cl)cccc23)NC1=S (stereo not shown) [Nec-1f]
Density of neutrophils (B6 LysM-GFP mice): highly significant decreases | Extravasation of neutrophils (B6 LysM-GFP mice): highly significant reductions | Neutrophil rolling velocities (B6 LysM-GFP mice): significant increases | Rate of neutrophil recruitment to the graft (B6 LysM-GFP mice): did not alter | Serum creatinine (C57Bl/6 N mice; [5]): 23 µmol/L and 17 µmol/L | Serum urea (C57Bl/6 N mice; [5]): 5.5 mmol/L and 5.6 mmol/L | Serum creatinine (C57Bl/6 N mice; [6]): 28 µmol/L and 95 µmol/L and 52 µmol/L and 60 µmol/L and 40 µmol/L and 74 µmol/L and 33 µmol/L and 35 µmol/L and 39 µmol/L | Serum urea (C57Bl/6 N mice; [6]): 19.1 mmol/L and 76 mmol/L and 75 mmol/L and 43.6 mmol/L and 50.1 mmol/L and 32.1 mmol/L and 57 mmol/L and 22.5 mmol/L and 16.7 mmol/L and 34.1 mmol/L and 24.8 mmol/L | Serum creatinine (C57Bl/6 N mice; [7]): 79 µmol/L and 31 µmol/L and 63 µmol/L and 46 µmol/L and 53 µmol/L and 44 µmol/L | Serum urea (C57Bl/6 N mice; [7]): 30.9 mmol/L and 8.8 mmol/L and 20.2 mmol/L and 18.9 mmol/L and 37.3 mmol/L and 16.4 mmol/L | 4HNE staining of renal tissue (C57Bl/6 N mice; [8]): attenuated | Infiltration of macrophages (F4/80) in the renal medulla (C57Bl/6 N mice; [8]): significantly less infiltration | Serum creatinine vs vehicle (C57Bl/6 N mice; [8]): lower than in the vehicle-treated mice | Serum urea vs vehicle (C57Bl/6 N mice; [8]): lower than in the vehicle-treated mice | Tubular damage vs vehicle (C57Bl/6 N mice; [8]): lower than in the vehicle-treated mice | 4HNE score, arbitrary [0-3] (sheet FigS2d) (C57Bl/6 N mice; kidney IRI, column headed Nec-1f): 1.6 and 1.4 | 4HNE staining score, arbitrary [0-3] (C57Bl/6 N mice; [9]): 0.6 and 1.6 and 1.8 and 0.8 and 1.2 | Tubular damage score, arbitrary [0-10] (C57Bl/6 N mice; [9]): 5 and 7 and 4 | F4/80 positivity, quantitative (Fig6i) (C57Bl/6 N mice; [10]): 8.8 cells/field and 7.8 cells/field and 20.3 cells/field and 16.2 cells/field and 20.8 cells/field | F4/80 positivity, quantitative (Fig6h) (C57Bl/6 N mice; [10]): 3.45 cells/field and 6.077 cells/field and 9.25 cells/field and 7.125 cells/field and 9.0625 cells/field | Human microsomal stability, parent compound remaining ([1]; 0 h): 100% | Human microsomal stability, parent compound remaining ([1]; 7 min): 80% | Human microsomal stability, parent compound remaining ([1]; 0.25 h): 65% | Human microsomal stability, parent compound remaining ([1]; 25 min): 48% | Human microsomal stability, parent compound remaining ([1]; 40 min): 34% | inhibition at 10 µM (A2A(h)): -0.3% | inhibition at 10 µM (α1A(h)): 4.8% | inhibition at 10 µM (CB2(h)): -12.8% | inhibition at 10 µM (D2S(h)): 4.8% | inhibition at 10 µM (ETA(h)): 0.9% | inhibition at 10 µM (MAO-A): 44.4% | inhibition at 10 µM (δ (DOP) (h)): 2.8% | inhibition at 10 µM (μ (MOP) (h)): 15.8% | inhibition at 10 µM (5-HT1B (h)): -12.9% | inhibition at 10 µM (5-HT2B(h)): 16.7% | inhibition at 10 µM (5-HT3(h)): 10.4% | AR(h) (#): inhibition of radioligand binding (AR(h)): 12.2% | inhibition at 10 µM (V1a(h)): 29.3% | Potassium Channel hERG (human)- [3H] Dofetilide: inhibition of radioligand binding [2]: -2.7% | inhibition at 10 µM [3]: 7.3% | inhibition at 10 µM (dopamine transporter(h)): 34.3% | inhibition at 10 µM (5-HT transporter (h)): -5.9% | inhibition at 10 µM [4]: 2%
